From patent publication US8263606B2 (Xenon Pharmaceuticals Inc., priority 2008, dated 2012)
pIC50: −log10 of the molar value.

Assays:
[1] = test system: sodium channel; test: Guanidine influx assay (14C-guanidine radiotracer flux, in vitro); type: cell-based, human or rat; conditions: guanidine influx assay using a known cell line that expresses a sodium channel
Method in brief: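 Test agents at half-step dilutions around 1 μM are added to plated cells in low-sodium HEPES buffer, then an aconitine/14C-guanidine mixture; after ambient-temperature incubation, cells are washed and counted. IC50 comes from a sigmoidal fit.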

[2] = target: CYP3A4 (Homo sapiens, UniProt P08684); test: Cytochrome P450 (CYP450) Inhibition Assay, CYP3A4 (Vivid fluorescence, BOMCC substrate); conditions: human, P450 Baculosomes (recombinant CYP3A4), probe BOMCC (Vivid substrate)
CYP3A4, sequence (P08684 whole entry): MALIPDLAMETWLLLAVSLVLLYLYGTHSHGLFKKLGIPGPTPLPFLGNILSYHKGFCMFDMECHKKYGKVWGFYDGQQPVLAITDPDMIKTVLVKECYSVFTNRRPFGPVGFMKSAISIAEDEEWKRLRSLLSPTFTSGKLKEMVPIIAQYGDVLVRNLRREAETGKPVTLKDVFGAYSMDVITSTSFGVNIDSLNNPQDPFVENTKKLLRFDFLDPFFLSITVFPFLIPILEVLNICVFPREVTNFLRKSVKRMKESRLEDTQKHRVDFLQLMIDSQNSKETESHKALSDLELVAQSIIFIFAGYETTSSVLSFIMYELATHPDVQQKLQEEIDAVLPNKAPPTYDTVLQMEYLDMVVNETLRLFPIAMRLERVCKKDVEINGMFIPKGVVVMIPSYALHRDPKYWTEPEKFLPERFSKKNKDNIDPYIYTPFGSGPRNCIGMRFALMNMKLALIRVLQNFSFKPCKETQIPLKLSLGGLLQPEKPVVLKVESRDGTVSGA

Structure (SMILES)	pIC50 [1]	melting point	inhibition at 10 µM [2]	pIC50 ([1]; activity level class)
COCCNC(=O)c1cccc(CN2C(=O)C3(COc4cc5c(cc43)CCO5)c3ccccc32)c1 (stereo not drawn) [Example 12.1, N-(2-methoxyethyl)-3-[(2′-oxo-5,6-dihydrospiro[benzo[1,2-b:5,4-b′]difuran-3,3′-indol]-1′(2′H)-yl)methyl]benzamide]	6.00 to 7.00	72 to 73 °C	> 50%	
O=C1Nc2cc(F)ccc2C12COc1cc3c(cc12)CCO3 (stereo not drawn) [Example 3.5, 6′-fluoro-5,6-dihydrospiro[benzo[1,2-b:5,4-b′]difuran-3,3′-indol]-2′(1′H)-one]		249 to 251 °C	> 50%	5.00 to 6.00
O=C1Nc2c(Br)cccc2C12COc1cc3c(cc12)OCO3 (stereo not drawn) [Example 1.5, 7′-bromospiro[furo[2,3-f][1,3]benzodioxole-7,3′-indol]-2′(1′H)-one]		240 °C (dec.)	> 50%	7.00 to 9.00
O=C1N(Cc2cnc(N3CCOCC3)s2)c2ccccc2C12COc1cc3c(cc12)OCO3 (stereo not drawn) [Example 11.2, 1′-[(2-morpholin-4-yl-1,3-thiazol-5-yl)methyl]spiro[furo[2,3-f][1,3]benzodioxole-7,3′-indol]-2′(1′H)-one]	6.00 to 7.00	97 to 99 °C	> 50%	
COc1cc2c(cc1C)[C@@]1(CO2)C(=O)Nc2ccccc21 [Example 3.25, (3S)-6-methoxy-5-methylspiro[1-benzofuran-3,3′-indol]-2′(1′H)-one]		> 250 °C	< 50%	5.00 to 6.00
COc1cc2c(cc1F)C1(CO2)C(=O)N(Cc2ccc(C(F)(F)F)o2)c2ccccc21 (stereo not drawn) [Example 9.30, 5-fluoro-6-methoxy-1′-{[5-(trifluoromethyl)furan-2-yl]methyl}spiro[1-benzofuran-3,3′-indol]-2′(1′H)-one]		45 to 47 °C	> 50%	6.00 to 7.00
O=C1N(Cc2cnc(N3CCCCC3)s2)c2ccccc2C12COc1cc3c(cc12)OCO3 (stereo not drawn) [Example 11.3, 1′-[(2-piperidin-1-yl-1,3-thiazol-5-yl)methyl]spiro[furo[2,3-f][1,3]benzodioxole-7,3′-indol]-2′(1′H)-one]	6.00 to 7.00	195 to 197 °C	> 50%	
O=C1N(Cc2ccc(N3CCOCC3)nc2)c2ccccc2C12COc1cc3c(cc12)OCCO3 (stereo not drawn) [Example 32, 1′-[(6-morpholin-4-ylpyridin-3-yl)methyl]-2,3-dihydrospiro[furo[2,3-g][1,4]benzodioxine-8,3′-indol]-2′(1′H)-one]	7.00 to 9.00	117 to 119 °C	> 50%	
CN(C)c1ccc(-c2cccc3c2C2(COc4cc5c(cc42)OCCO5)C(=O)N3Cc2ccccn2)cn1 (stereo not drawn) [Example 16.59, 4′-(6-(dimethylamino)pyridin-3-yl)-1′-(pyridin-2-ylmethyl)-3,7-dihydro-2H-spiro[benzofuro[5,6-b][1,4]dioxine-8,3′-indolin]-2′-one]	6.00 to 7.00	187 to 188 °C	> 50%	
O=C1N(C[C@H]2CCCO2)c2ccccc2C12COc1cc3c(cc12)OCCCO3 (stereo partly drawn) [Example 8.11, 1′-[(2R)-tetrahydrofuran-2-ylmethyl]-3,4-dihydro-2H-spiro[furo[2,3-h][1,5]benzodioxepine-9,3′-indol]-2′(1′H)-one]		134 to 138 °C	< 50%	5.00 to 6.00
O=C1N(Cc2ncccc2C(F)(F)F)c2ccccc2C12COc1cc3c(cc12)OC(F)(F)O3 (stereo not drawn) [Example 2.36, 2,2-difluoro-1′-{[3-(trifluoromethyl)pyridin-2-yl]methyl}spiro[furo[2,3-f][1,3]benzodioxole-7,3′-indol]-2′(1′H)-one]		200 to 201 °C	< 50%	5.00 to 6.00
CSc1ccc(CN2C(=O)C3(COc4cc5c(cc43)OCO5)c3ccccc32)cc1 (stereo not drawn) [Example 4.79, 1′-[4-(methylsulfanyl)benzyl]spiro[furo[2,3-f][1,3]benzodioxole-7,3′-indol]-2′(1′H)-one]		128 to 130 °C	> 50%	7.00 to 9.00
N#Cc1ccc(CN2C(=O)C3(COc4cc5c(cc43)OCCO5)c3ccccc32)cc1 (stereo not drawn) [Example 4.96, 4-[(2′-oxo-2,3-dihydrospiro[furo[2,3-g][1,4]benzodioxine-8,3′-indol]-1′(2′H)-yl)methyl]benzonitrile]		69 to 72 °C	> 50%	7.00 to 9.00
O=C1N(CC2CC2(F)F)c2ccccc2C12COc1cc3c(cc12)OCCO3 (stereo not drawn) [Example 5.21, 1′-[(2,2-difluorocyclopropyl)methyl]-2,3-dihydrospiro[furo[2,3-g][1,4]benzodioxine-8,3′-indol]-2′(1′H)-one]		162 to 164 °C	< 50%	7.00 to 9.00
Cc1noc(-c2cccc(CN3C(=O)C4(COc5cc6c(cc54)OCCO6)c4ccccc43)c2)n1 (stereo not drawn) [Example 28, 1′-[3-(3-methyl-1,2,4-oxadiazol-5-yl)benzyl]-2,3-dihydrospiro[furo[2,3-g][1,4]benzodioxine-8,3′-indol]-2′(1′H)-one]	7.00 to 9.00	80 to 89 °C	< 50%	
O=C1N(C[C@H]2CCCO2)c2ccc(F)cc2C12COc1cc3c(cc12)CCO3 (stereo partly drawn) [Example 9.18, 5′-fluoro-1′-[(2R)-tetrahydrofuran-2-ylmethyl]-5,6-dihydrospiro[benzo[1,2-b:5,4-b′]difuran-3,3′-indol]-2′(1′H)-one]		167 to 169 °C	> 50%	6.00 to 7.00
Nc1noc2cc3c(cc12)C1(CO3)C(=O)N(Cc2ccccc2C(F)(F)F)c2ccccc21 (stereo not drawn) [Example 44.3, 3-amino-1′-[2-(trifluoromethyl)benzyl]spiro[furo[3,2-f][1,2]benzisoxazole-5,3′-indol]-2′(1′H)-one]	5.00 to 6.00	262 to 264 °C	> 50%	
O=C1N(CC2CCOCC2)c2ccccc2C12COc1cc3c(cc12)OCCO3 (stereo not drawn) [Example 4.37, 1′-(tetrahydro-2H-pyran-4-ylmethyl)-2,3-dihydrospiro[furo[2,3-g][1,4]benzodioxine-8,3′-indol]-2′(1′H)-one]		129 to 131 °C	< 50%	7.00 to 9.00
CCOC(=O)CN1C(=O)C2(COc3cc4c(cc32)OCCO4)c2ccccc21 (stereo not drawn) [Example 9.44, ethyl (2′-oxo-2,3-dihydrospiro[furo[2,3-g][1,4]benzodioxine-8,3′-indol]-1′(2′H)-yl)acetate]		58 to 59 °C	< 50%	7.00 to 9.00
O=C1N(CCCO)c2ccccc2C12COc1cc3c(cc12)CCO3 (stereo not drawn) [Example 11.34, 1′-(3-hydroxypropyl)-5,6-dihydrospiro[benzo[1,2-b:5,4-b′]difuran-3,3′-indol]-2′(1′H)-one]	6.00 to 7.00	54 to 56 °C	< 50%	
O=C1N(Cc2ccc(OCc3ccccc3)cc2)c2ccccc2C12COc1cc3c(cc12)CCO3 (stereo not drawn) [Example 9.38, 1′-[4-(benzyloxy)benzyl]-5,6-dihydrospiro[benzo[1,2-b:5,4-b′]difuran-3,3′-indol]-2′(1′H)-one]		169 to 170 °C	< 50%	6.00 to 7.00
COCCOCCN1C(=O)C2(COc3cc4c(cc32)CCO4)c2ccccc21 (stereo not drawn) [Example 9.1, 1′-[2-(2-methoxyethoxy)ethyl]-5,6-dihydrospiro[benzo[1,2-b:5,4-b′]difuran-3,3′-indol]-2′(1′H)-one]		105 to 107 °C	> 50%	6.00 to 7.00
CC(C)(C)OC(=O)N1C(=O)C2(COc3cc4c(cc32)OCCO4)c2ccccc21 (stereo not drawn) [Example 18.2, tert-butyl 2′-oxo-2,3-dihydrospiro[furo[2,3-g][1,4]benzodioxine-8,3′-indole]-1′(2′H)-carboxylate]	6.00 to 7.00	171 to 172 °C	< 50%	
Nc1noc2cc3c(cc12)C1(CO3)C(=O)N(C[C@H]2CCCO2)c2ccccc21 (stereo partly drawn) [Example 44.2, 3-amino-1′-[(2R)-tetrahydrofuran-2-ylmethyl]spiro[furo[3,2-f][1,2]benzisoxazole-5,3′-indol]-2′(1′H)-one]	5.00 to 6.00	116 to 119 °C	< 50%	
COC(=O)c1cccc(CN2C(=O)C3(COc4cc5c(cc43)OCCO5)c3ccccc32)c1 (stereo not drawn) [Example 9.53, methyl 3-[(2′-oxo-2,3-dihydrospiro[furo[2,3-g][1,4]benzodioxine-8,3′-indol]-1′(2′H)-yl)methyl]benzoate]	7.00 to 9.00	89 to 97 °C	> 50%	
O=C(Nc1cccc(F)c1)c1ccc(CN2C(=O)C3(COc4cc5c(cc43)CCO5)c3ccccc32)cc1 (stereo not drawn) [Example 12.36, N-(3-fluorophenyl)-4-[(2′-oxo-5,6-dihydrospiro[benzo[1,2-b:5,4-b′]difuran-3,3′-indol]-1′(2′H)-yl)methyl]benzamide]	6.00 to 7.00	> 250 °C	< 50%	
O=C1N(C(c2ccccc2)c2ccccc2)c2ccccc2C12COc1cc(F)c(F)cc12 (stereo not drawn) [Example 2.61, 1′-(diphenylmethyl)-5,6-difluorospiro[1-benzofuran-3,3′-indol]-2′(1′H)-one]		213 to 216 °C	< 50%	≤ 5.00
O=C1N(Cc2ccc3nsnc3c2)c2ccccc2C12COc1cc3c(cc12)OCCO3 (stereo not drawn) [Example 4.118, 1′-(2,1,3-benzothiadiazol-5-ylmethyl)-2,3-dihydrospiro[furo[2,3-g][1,4]benzodioxine-8,3′-indol]-2′(1′H)-one]		189 to 191 °C	> 50%	7.00 to 9.00
